Test results published in the NIST ThermoML archive (doi:10.1016/j.jct.2004.07.010).
± gives the expanded uncertainty stated by the source.

Key:
[1] = refractive index (Na D-line) (dimensionless); conditions: 293.15 K; 101.33 kPa; Liquid; Standard Abbe refractometry
[2] = 298.15 K, 101.33 kPa, Liquid

Row | Structure (SMILES) | refractive index [1] | mass density [2] [kg/m3] | mass density ([2]; Vibrating tube method) [kg/m3]
1 | c1ccccc1 [benzene] | 1.5009 ± 0.0007 | 873.56 ± 0.35 | –
2 | O=C1CCCCC1 [cyclohexanone] | 1.4507 ± 0.0007 | – | 941.7 ± 0.11
3 | CCc1ccccc1 [ethylbenzene] | 1.4962 ± 0.0008 | – | 862.44 ± 0.55
4 | C=Cc1ccccc1 [styrene] | 1.546 ± 0.0007 | 901.51 ± 0.31 | –
5 | Cc1ccccc1 [toluene] | 1.4965 ± 0.0008 | 862.14 ± 0.94 | –
